According to US20140205583A1, “USE OF PLP WITH PEG-rMETase IN VIVO FOR ENHANCED EFFICACY” (AntiCancer, Inc., priority 2003, published 2014):

Experiments:
[1] = system: plasma methionine; assay: Plasma methionine depletion following intravenous injection of naked and PEGylated rMETase, with or without PLP pump; assay type: in vivo, Athymic nude (nu/nu) mice; conditions: for Max. Period of MET depletion below 5 μM, PLP+: with PLP supplementation from s.c. mini-osmotic pump; for Period of plasma methionine depletion below 5 μM relative to naked rMETase: fold longer than naked rMETase; for PLP dependence (ratio of plasma methionine PLP− versus PLP+): ratios at various time points, FIG. 8
Procedure: The methionine level in the plasma was measured by pre-column derivitization, followed by HPLC separation (Jones, B. N., and Gilligan, J. P., J. Chromatogr. (1983) 266:471-482). Briefly, 10 μl of plasma sample or methionine standard was precipitated with 30 μl of acetonitrile, followed by centrifugation at 10,000 rpm for 5 minutes. 10 μl of the supernatant was mixed with 5 μl of a fluoraldehyde derivative reagent, o-phthaldialdehyde, for 1 minute at room temperature, followed by addition of 150 μl of 0.1 M sodium acetate, pH 7.0. 20 μl of the reaction mixture was loaded on a reversed-phase Supelcosil™ LC-18DB column (25 cm×[…], particle size 5 μm (Supelco, Bellefonte, Pa., USA). The amino acid derivatives were separated by using a gradient elution of 40-60% solution B (Methanol) in solution A (tetrahydrofuran/methanol/0.1M sodium acetate. pH 7.2; 5/95/900) at a flow rate of 1.5 ml/minute. A fluorescence spectrophotometer was used for detection: excitation at 350 nm and emission at 450 nm. The plasma methionine was identified by the retention time of a methionine standard solution and quantitated according to a methionine standard curve.
(§1) Athymic nude (nu/nu) mice aged 4 weeks (20-25 g) were used for the study with 4 mice per group. Osmotic mini-pumps filled with 250 μl PLP (0.5 g/ml) were implanted subcutaneously. Twenty-four hours after pump implantation, 80 units of native rMETase or PEG-rMETase in 0.5 ml PBS, pH 7.4, were injected via the tail vein in mice with or without PLP pumps. 400 μl of blood was collected from the retroorbital plexus of each animal using heparinized capillary tubes. Blood was collected prior to injection, and 1, 2, 4, 8, 24, 48, 72, 96 and 120 hours post injection. The plasma was separated and stored in small aliquots at −80° C. The plasma enzyme activity, methionine concentration and PLP level in the plasma, collected at the different time points, were measured as described above.
(§2) 80 U of naked or PEGylated rMETase were injected i.v. in each mouse with or without PLP supplementation. Blood samples were collected at different time points and measured for enzyme activity and methionine concentration as described in the Materials and Methods. Plasma half-life was calculated from the plasma enzyme concentration-time profiles (FIG. 4). Maximum period of methionine depletion below 5 μM is calculated from the plasma methionine levels in FIGS. 5 and 7.
The mice were injected i.v. with 80 U of naked or the indicated PEGylated rMETase. Blood samples were collected at different time points and measured for plasma methionine concentration as described above.
In these experiments, 80 U of naked or PEGylated rMETase was injected intravenously in animals with and without PLP supplementation from implanted mini-osmotic pumps. Blood samples were taken at different time points and measured for plasma methionine concentration. […] The plasma methionine levels depleted by the three PEGylated rMETase conjugates were maintained below 2 μM for 48 hours and below 4 μM for 72 hours in case of PEG/rMETase 120 with PLP supplementation (Table 3). At 120 hours after injection of PEG/rMETase, the plasma methionine level depleted by PEG/rMETase 30, PEG/rMETase 60 and PEG/rMETase 120 still remained at 40%, 57% and 22% of normal baseline, respectively (Table 3).

[2] = system: cancer cell lines; conditions: wide variety of cancer cell lines, in vitro; cited from earlier work
[3] = system: plasma anti-rMETase specific antibody; assay: Plasma anti-rMETase antibody titer by sandwich ELISA after immunization with FCA; assay type: in vivo, BALB/c male mice; conditions: mice immunized i.p. with 200 μg in FCA; figures in parentheses = numbers of mice
Procedure: BALB/c male mice were grouped randomly at 5 per group. Each mouse received three i.p. injections of 0.2 ml (200 μg) naked or PEG-rMETase emulsified in Freund's complete adjuvant (FCA) at weekly intervals. Two weeks following the last injection, a booster injection of the rMETase or PEG-rMETase was given to each mouse. Blood samples were collected two weeks after the booster injection, and plasma was separated and stored at −80° C.
Plasma anti-rMETase antibody was measured using a sandwich ELISA technique. 100 μl 200 μg/ml rMETase in 0.1 M carbonate coating buffer, pH 9.5, was added to each well of a 96-well microplate and incubated at 4° C. overnight. The plate was washed three times with PBS washing buffer, pH 7.4, containing 0.05% Tween-20, and blocked for 2 hours at room temperature with 200 μl of PBS assay buffer, pH 7.4, containing 10% FBS. After washing three times, 100 μl of 10-fold serial dilutions of the plasma samples in PBS assay buffer were added to appropriate wells and incubated for 2 hours at room temperature, followed by washing. 100 μl optimally diluted goat anti-mouse IgG and IgM subtypes conjugated with horseradish peroxidase (SIGMA, St. Louis, Mo., USA) were added to each well. The plate was incubated for 1 hour at room temperature and washed three times. 100 μl substrate solution containing O-phenylenediamine dihydrochloride (OPD) and hydrogen peroxide (SIGMA, St. Louis, Mo., USA) were added to each well, followed by 30 min incubation at room temperature. 50 μl 2N sulfuric acid were added to each well to stop the color reaction. The absorbance of each well was measured at 492 nm. The antibody titer was determined as the highest plasma dilution at which the extinction at 492 nm generated in the well of the immune plasma exceeded twice the extinction generated in those wells with negative control plasma.
IgG and IgM anti-rMETase antibody titers of the plasma of the mice immunized with naked or indicated PEGylated rMETase in the presence of FCA were determined using ELISA as described in the Materials and Methods. […]

[4] = Pharmacokinetics: plasma enzyme activity following intravenous injection of naked and PEGylated rMETase in mice; assay type: in vivo, Athymic nude (nu/nu) mice; conditions: for Plasma half-life in mice: 80 U i.v. per mouse, calculated from plasma enzyme activity-time profiles; for Plasma enzyme activity detectable until: 80 units per mouse i.v.
Procedure: rMETase activity was determined from α-ketobutyrate produced from L-methionine according to the method of Tanaka, H., et al., Biochemistry (1977) 16:100-106, with slight modification. 0.5 ml of sample diluted in 100 mM potassium phosphate buffer pH 8.0, containing 0.01% DTT, 1 mM EDTA Nae, 10 μM PLP and 0.05% Tween 80, was mixed with 0.5 ml of substrate solution containing 100 mM potassium phosphate buffer, pH 8.0, containing 25 mM L-methionine and 10 μM PLP in a glass test tube. The reaction mixture was vortexed immediately and incubated at 37° C. without shaking for precisely 10 minutes. The reaction was stopped by adding 0.5 ml of 50% TCA. The suspension was centrifuged at 13,000 rpm for 2 minutes. The supernatant (0.5 ml) was collected in a glass tube containing 1 ml 1 M acetate buffer, pH 5.0. Then, 0.4 ml MBTH solution containing 0.1% 3-methyl-2-benzothiazolinonehydrazone dihydrochloride monohydrate (Wako Pure Chemical, Osaka, Japan) was added to the tube, mixed well and incubated at 50° C. for 30 minutes. The absorbance of the reaction mixture was measured at 320 nm. The assay was carried out in triplicate. ΔE was calculated by subtracting the average absorbance of blanks from the average absorbance of the reaction mixture. The enzyme activity was calculated by the following equation: Activity (U/ml)=0.548 (1.07+2.2ΔE) ΔE. One unit of enzyme is defined as the amount of enzyme which produced 1 μM of α-ketobutyrate per minute at an infinite concentration of L-methionine.
as §1
The mice were injected intravenously with 80 U naked or the indicated PEGylated rMETase. Blood samples were collected at different time points and measured for plasma enzyme activity as described above.
as §2

[5] = literature comparison; cited from earlier work
[6] = 80 U i.v., without PLP supplementation
[7] = 80 U i.v., with PLP supplementation

Substance	Plasma methionine level reached within 1 hour ([1]; 80 U i.v., baseline 40 μM, without PLP supplementation)	Max. Period of MET depletion below 5 μM, PLP+ ([1]; 80 U i.v.)	Max. Period of MET depletion below 5 μM, PLP− [1, 6]	IC50 in cancer cell lines compared to non-neoplastic cells [2]	Plasma methionine level at 120 hours after injection, of normal baseline [1, 7]	Period of plasma methionine depletion below 5 μM relative to naked rMETase [1, 6]	Plasma anti-rMETase specific IgM antibody titer [3]	Plasma half-life in mice [4]	PLP dependence (ratio of plasma methionine PLP− versus PLP+) [1]	Plasma enzyme activity detectable until [4]	Plasma methionine level maintained for 72 hours [1, 7]	Plasma half-life [5]
L-methionine α-deamino-γ-mercaptomethane lyase [Naked rMETase]	less than 5 μM	4 h	4 h	several-fold less								
PEG/rMETase 30: rMETase conjugated with MEGC-PEG-5000 at molar ratio PEG/rMETase of 30/1		48 h	8 h		40%	2 fold	10^−3 (5)	12 h				
PEG/rMETase 60: rMETase conjugated with MEGC-PEG-5000 at molar ratio PEG/rMETase of 60/1		48 h	24 h		57%	6 fold	10^−3 (5)	18 h	lesser PLP dependence than PEG/rMETase 30	72 h		
PEG/rMETase 120: rMETase conjugated with MEGC-PEG-5000 at molar ratio PEG/rMETase of 120/1		72 h	48 h		22%	12 fold	10^−3 (5)	38 h	lesser PLP dependence than PEG/rMETase 30	72 h	below 4 μM	
PEGylated rMETase with M-SPA-PEG: Literature rMETase PEGylated with M-SPA-PEG, comparison for half-life												40 min
